Patent publication US9145424B2, “Treatment of amyotrophic lateral sclerosis” (Northwestern University, priority 2008, dated 2015)
Entries after “also recorded” stand apart in the source; their conditions may differ. Like-named read-outs stand apart in the source and are kept apart here. Where a SMILES comes first, the peptide text is derived from it. The star is where a group is joined. Cbz = O=C(OCc1ccccc1)*

Legend:
[1] = Aqueous solubility; assay type: physicochemical
Description: Solubility: Because compounds are stored in DMSO, it is necessary to determine aqueous solubility of initial hit compounds and their analogs. High solubility in aqueous solution is necessary for high GI absorption, bioavailability, and for chemical formulation. Compounds should be soluble in aqueous solution at >10 μg/ml. Solubility of >50 μg/ml is preferred.

[2] = In vitro plasma stability; assay type: in vitro ADME
Description: Plasma stability: Plasma stability of active compounds is assessed in efficacy species (mouse), toxicity species (rat, dog, monkey), and human cells.

[3] = test system: proteasome activity (Ubi-YFP degradation); assay: Proteasome activity assay (Ubi-YFP in HeLa cells); assay type: cell-based
Description: FIG. 7. Arylsulfanyl pyrazolones prevent MG132-induced accumulation of Ubi-YFP. HeLa cells were co-transfected with Ubi-YFP and CMV-CFP plasmids, treated with 1 μM MG132 and 25 μM arylsulfanyl pyrazolones and Ubi-YFP fluorescence intensity normalized to CFP.
Since the CMB-003299 cytotoxicity of SOD1 protein aggregates may involve inhibition of proteasome activity, compounds that stimulate proteasome activity could reverse or prevent mutant SOD1-induced cytotoxicity. Thus, active compounds were tested for the ability to stimulate proteasome activity using a cell line expressing ubiquitin-conjugated YFP [Ubi-YFP 74]. In these cells, increased proteasome activity causes increased degradation of Ubi-YFP and decreased YFP fluorescence. Conversely, compounds that inhibit proteasome activity increase accumulation of Ubi-YFP and enhanced YFP fluorescence. As expected, MG132 augments YFP fluorescence intensity ˜3-fold compared to untreated controls (FIG. 7). […] Protein aggregates are present in the absence of MG132 and aggregation is suppressed following treatment with a provided compound.
HeLa cells (20,000/chamber) were plated on 8 chambered Tissue-tek coverglass pretreated with 1 mg/ml poly-D-lysine and allowed to adhere for 18 h at 37° C./5% CO2. Cells were transfected with 0.2 μg each CMV-CFP and Ubi-YFP plasmids using Lipofectamine 2000 according to manufacturer's instructions. Cells were allowed to express CFP and Ubi-YFP for 18 h followed by a 6 h incubation with test compounds (25 μM). MG132 (1 μM) was added for a final 18 h incubation and Ubi-YFP degradation assessed by fluorescence microscopy. Fluorescence intensity of CFP and YFP was calculated on a cell-by-cell basis from captured images using AxioVision software (Zeiss). YFP fluorescence was normalized to CFP fluorescence.

[4] = In vitro ADME: metabolic potential / microsomal stability, species not stated
Description: Metabolism (microsome, S9 fraction, CYP450): Liver Cytochrome P450 (CYP450) enzymes are the major route for xenobiotic metabolism and microsomal and hepatocyte stability is the best predictor of pharmacokinetic half-life. Cross-species comparisons of metabolism in liver microsomes can predict potential issues with liver toxicity in humans. Selected active compounds are tested in liver microsomes from efficacy species (mouse), toxicity species (rat, dog, monkey), and humans for metabolic stability.
CMB-003319 was evaluated for its in vitro ADME properties.
Compounds were sent for in vitro ADME tests to evaluate their ADME properties.

[5] = test system: Caco-2; assay: In vitro Caco-2 permeability; assay type: in vitro ADME
Description: General Permeability: High membrane permeability is required for effective GI absorption and optimal bioavailability. Passive permeability is typically assessed in the PAMPA artificial membrane assay (Kansy et al., J. Med. Chem. 2002, 45(8), 1712-1722). Cell-based permeability determinations using the Caco-2 cell assay are more resource intensive but more predictive of active transport or efflux in vivo (Artursson et al., Adv. Drug. Deliv. Rev. 2001, 46(1-3), 27-43). Caco-2 assays are performed as needed during SAR development.

[6] = assay type: in vitro ADME; details: male, Sprague Dawley, 15 μM, pH 7.4; for % Mean ± S.E. / RR Mean (Response Ratio): rat
[7] = test system: human HSP70 promoter; assay: Activation of cellular heat shock response (HeLa hse-luc luciferase reporter); assay type: cell-based; details: 8 h
Description: FIG. 6. Arylsulfanyl pyrazolones fail to induce heat shock response in Hsp 70 promoter assays. HeLa hse-luc cells were treated with arylsulfanyl pyrazolones (1 μM-100 μM), celestrol (1 μM-5 μM), or CdCl2 (10 μM-100 μM), for 8 h and activation of the heat shock response determined by HSP70 promoter activity.
(§1) Mechanism of action studies have been initiated for provided compounds. provided compounds active in the cytotoxicity protection assay were initially assayed for the ability to prevent SOD1 aggregation using manual, low-throughput methods. […] The ability of provided compounds to induce expression of molecular chaperones was also tested using stably-transfected HeLa cells (HeLa hse-luc) expressing a luciferase reporter gene under the control of the human HSP70 promoter. This HeLa hse-luc reporter system was used previously to identify small-molecule activators of the heat shock response (Westerheide et al. J. Biol. Chem. 2004, 279(53), 56053-56060).
HeLa cells, stably transfected with a luciferase reporter plasmid under control of the HSP70 promoter, were plated in a 96 well plate at a density of 7500 cells/100 μl. […] Cells were lysed by the addition of 100 μl BrightGlo reagent (Promega) according to manufacturer's instructions and luciferase activity measured by quantifying luminescence signal. […]

[8] = test system: PC12 cells expressing no SOD1, wild type SOD1 and G85R SOD1; assay: Sensitivity of PC12 cells to proteasome inhibitor, calcein-AM viability; assay type: cell-based
Description: (§2) FIGS. 1A-C. […] Cell survival was determined using the viability stain calcein-AM.

[9] = test system: PC12 cells expressing G93A SOD1; assay: as above; assay type: cell-based
Description: as §2

[10] = test system: PC12 cells expressing wild-type SOD1; assay: SOD1 protein aggregation, wild type control line; assay type: cell-based; details: cells treated with MG132
Description: FIGS. 3A-F. Mutant but not wild type SOD1 aggregates in cells treated with the proteasome inhibitor MG132. Fluorescence micrographs of PC12 cells expressing YFP tagged wild type (WT), G93A mutant (G93A), and G85R mutant (G85R)SOD1 proteins (3A-C). The micrographs show the effects of treating cells with 200 nM MG132 for 24 hours (untreated cells are shown in insets on left, 3D-F, respectively). The wild type SOD1 expressing cells are unaffected while cells expressing mutant SOD1 show large perinuclear aggregates.
(§3) In PC12 cells that express wild-type SOD1, SOD1 was diffusely localized throughout the cell (Matsumoto et al., J. Cell. Biol. 2005, 171(1), 75-85). […] Therefore, these effects are likely to be due to MG132-induced proteasome inhibition, and not due to an off-target effect of MG132.

[11] = test system: PC12 cells expressing G85R SOD1; assay: Mutant SOD1 protein aggregation assay; assay type: cell-based
Text: Compounds that are active in the above assay could theoretically protect against mutant SOD1-induced cytotoxicity through a number of mechanisms, including the following: 1) compounds could nonspecifically block or reverse protein aggregation via chaperone induction, as observed for radicicol and geldanamycin; 2) compounds could block or reverse the aggregation of a specific aggregated protein form; 3) compounds could interfere with an event downstream of protein aggregation that plays a critical role in mutant SOD1-induced cytotoxicity (e.g., proteasome function); and 4) compounds could act directly on SOD1 in a manner that prevents mutant SOD1 aggregation. These possibilities were tested using an assay that directly measures protein aggregation. In addition, unlike the high throughput cytotoxicity protection assay, the protein aggregation assay is based on G85R SOD1; this broadens the scope of the screening strategy, and should eliminate compounds with highly specific activity (i.e., G93A SOD1 limited) against protein aggregation.
as §3
The identification of a positive control is a crucial step in assay development. Thus, PC12 cells expressing G85R or G93A mutant SOD1 were treated with MG132 to induce protein aggregation, and then co-treated with candidate chemical suppressors of protein aggregation. […]
To allow this assay to be used in a high-throughput manner, a Cellomics Arrayscan® high content microscopy system was used for screening and quantification. […]
Arrayscan images were recorded using a 20× objective and the XF93-TRITC filter set in channel 1 for the Image-iT WGA plasma membrane dye or the XF93-FITC filter set for SOD1-YFP and analyzed using Cellomics spot detector software. […] Data were recorded as spot count (aggregate)/object (cell).

[12] = test system: PC12 cells expressing G93A mutant SOD1; assay: Mutant SOD1 protein aggregation; assay type: cell-based
Description: as §3
The identification of a positive control is a crucial step in assay development. Thus, PC12 cells expressing G85R or G93A mutant SOD1 were treated with MG132 to induce protein aggregation, and then co-treated with candidate chemical suppressors of protein aggregation. Two compounds with similar activity were identified in these experiments: geldanamycin and radicicol. Both compounds induce heat shock transcription factor […], which in turn induces the heat shock response (FIG. 4).
as §1, with “This HeLa hse-luc reporter system was used previously to identify small-molecule activators of the heat shock response (Westerheide et al. J. Biol. Chem. 2004, 279(53), 56053-56060).” left out

[13] = test system: PC12 cells that express mutant G93A SOD1; assay: Mutant SOD1-induced cytotoxicity protection assay; details: rat, 48 h
Description: This idea was tested by examining the sensitivity of PC12 cells to SOD1 aggregates in the presence and absence of proteasome inhibitor MG132. PC12 cells expressing no SOD1, wild type SOD1, G85R SOD1 or G93A SOD1 were grown with or without MG132 (FIG. 1).
PC12 cells expressing G93A SOD1 were treated with 100 nM MG132 with or without co-treatment with geldanamycin or radicicol.

[14] = NADPH dependent rat liver microsomal metabolite study by HPLC; assay type: in vitro ADME; details: NADPH dependent rat liver microsomes, up to 60 minutes
Description: TC-II-68 and TC-II-70 were proposed as possible metabolites and prepared before the study.
After 0, 5, 10, 20, 40, and 60 minutes incubation with rat liver microsome, 50 μL acetonitrile was added to quench reactions. The reaction mixture was vortexed and incubated in an ice bath for 2 h. The samples were centrifuged to remove the precipitated protein. The supernatant solutions were loaded directly for HPLC analysis.

Compound: Cc1cc(SCc2cc(=O)[nH][nH]2)c(Cl)cc1Cl [CMB-003319]
- aqueous-solubility, in words [1]: medium
- plasma stability, in words [2]: poor
- effect on MG132-induced Ubi-YFP fluorescence ([3]; 25 μM compound, 1 μM MG132): strongly inhibit
- metabolic potential [4]: medium
- CaCO-2 permeability, in words [5]: medium
- rat liver microsomal stability, in words [6]: poor microsomal stability

Compound: [Cl][Cd][Cl] [CdCl2]
- luciferase activity (HSP70 promoter) [7]: strongly induced luciferase activity

Compound: CC(C)C[C@@H](C=O)NC(=O)[C@H](CC(C)C)NC(=O)[C@H](CC(C)C)NC(=O)OCc1ccccc1 [MG132] (Cbz-Leu-Leu-Leu-aldehyde)
- toxicity, in words ([8]; 100 nM, 24 hours, any of the cell lines): no toxicity
- IC50 ([8]; Rattus norvegicus, PC-12, cells expressing no SOD1, wild type SOD1 and G85R SOD1, read-out: IC50 of proteasome inhibitor on cell viability): ~0.4 µM
- sensitivity of G93A SOD1 cells relative to the other lines [9]: approximately 5 fold
- toxicity, in words ([9]; 100 nM, 48 hours): selectively toxic
- IC50 ([9]; Rattus norvegicus, PC-12, read-out: IC50 of proteasome inhibitor on cell viability): ~0.075 µM
- YFP fluorescence intensity compared to untreated controls ([3]; 1 μM): ~3 fold
- aggregation, in words [10]: no aggregation was observed
- cells containing protein aggregates ([11]; cells treated with MG132): up to 75%
- cells with protein aggregates ([12]; following treatment with MG132): ~75%

Compound: C[C@@H]1C[C@H]2O[C@@H]2/C=C\C=C\C(=O)Cc2c(Cl)c(O)cc(O)c2C(=O)O1 [Radicicol, reference compound]
- efficacy (maximum viability at optimum dosage) [13]: 80%
- proportion of cells with aggregates ([11]; G85R or G93A mutant SOD1 cells, MG132 plus co-treatment, 75% without): 25%
- effect on protein aggregation, in words ([11]; MG132-induced aggregation): decreases mutant SOD1 aggregation
- effect on protein aggregation, in words ([12]; MG132-treated cells): reduced formation of protein aggregates

Compound: O=c1cc(CSc2ccc(Cl)cc2)[nH][nH]1 [TC-I-165, 5-((4-Chlorophenylthio)methyl)-1H-pyrazol-3(2H)-one]
- % Mean ± S.E. ([6]; 0 min): 100 ± 26.4%
- RR Mean (Response Ratio) ([6]; 0 min): 2.529
- % Mean ± S.E. ([6]; 20 min): 12.4 ± 0.89%
- RR Mean (Response Ratio) ([6]; 20 min): 0.314
- microsomal metabolites [14]: only TC-II-68 was a direct metabolite; also recorded: the only direct metabolite from TC-I-165 was TC-II-68; also recorded: TC-II-70 is not a metabolite

Compound: CC1=C(O)C(=O)C=C2C1=CC=C1[C@@]2(C)CC[C@@]2(C)[C@@H]3C[C@](C)(C(=O)O)CC[C@]3(C)CC[C@]12C [celastrol, celestrol]
- luciferase activity (HSP70 promoter) [7]: strongly induced luciferase activity
